The record followed here is patent US8883415B2, “Aza-benzazolium containing cyanine dyes” (Life Technologies Corporation, priority 1999, dated 2014).

Common to all, as to type: binding
The test system of one test is double-stranded DNA. Nature of the test: Detecting double-stranded DNA in solution (fluorescence microplate reader). The protocol: Samples containing 0.1 ng/mL to 1 microgram/mL double-stranded DNA are prepared in 10 mM Tris-HCl, 1 mM EDTA, pH 7.5. The selected dye of the invention is dissolved in DMSO at a concentration of 1-10 mM and then diluted into the same buffer at a concentration sufficient to achieve final optical densities of 0.1 and 0.01 at 500 nm, 530 nm, 540 nm or 560 nm. Equal volumes (100 microliters each) of DNA sample solution and dye solution at each concentration are combined and mixed gently at room temperature in a microplate well.
Samples are allowed to equilibrate for 5-60 minutes, protected from light, and the fluorescence of the sample is measured using a fluorescence microplate reader. DNA concentration is determined by comparison of the sample fluorescence with a standard curve obtained with that dye for each dye concentration. The sensitivity limit of several dyes in this assay is shown (Table 5).

The subject of test [1] is 18-base oligodeoxynucleotide sequencing primer. Nature of the test: Detecting oligonucleotides in solution. Conditions: Excitation 530 nm/Emission 560 nm. On the procedure:
Selected dyes of the invention are dissolved in DMSO at 1-10 micromolar concentration, then diluted into 10 mM Tris-HCl, 1 mM EDTA, pH 7.5 to a final optical density of 0.1 or 0.01 at 530 nm or 540 nm. The resulting dye solutions are combined with an equal volume of an 18-base oligodeoxynucleotide sequencing primer solution at concentrations of 0.1 ng/mL to 1 microgram/mL in the same buffer. The resulting mixture is mixed gently and incubated for 5-60 minutes at room temperature, protected from light, and the sample fluorescence is measured in a fluorescence microplate reader.

In test [2] the test system is double-stranded bacteriophage λ cl857 DNA that is digested with HindIII restriction endonuclease. Briefly: Detecting nucleic acids in gels. The following applies: POLAROID 667 B&W film; FOTODYNE 254 nm epi.; 1 micromolar dye.
Test [3] shares this test system. Briefly: Detecting nucleic acids in gels. Conditions: 1 micromolar dye. On the procedure: DNA samples are loaded onto agarose or polyacrylamide gels and electrophoresed using standard conditions. Selected dyes of the invention are dissolved in DMSO at a concentration of 1-10 micromolar and diluted into 0.5×TBE buffer to a final concentration of 1 micromolar dye. Gels are incubated for 20-90 minutes in this staining solution, with gentle agitation, at room temperature, protected from light. Nucleic acids are visualized by transillumination at 300 nm, followed by direct visual detection or photography using Polaroid black-and-white print film. Nucleic acids are alternatively visualized by scanning using a FMBIO II laser scanner with a 532 nm frequency-doubled YAG laser source or a charge-coupled device camera system coupled with an ultraviolet (300 nm) light source, or a visible light transilluminator.

The test system of test [4] is Escherichia coli ribosomal RNA. Briefly: Detecting RNA in solution. The following applies: Excitation 530 nm/Emission 560 nm. The protocol: Selected dyes of the invention are dissolved in DMSO at 1-10 micromolar concentration, then diluted into 10 mM Tris-HCl, 1 mM EDTA, pH 7.5 to a final optical density of 0.1 or 0.01 at 530 nm or 540 nm. These dye solutions are combined with an equal volume of Escherichia coli ribosomal RNA at concentrations ranging from 0.25 ng/mL to 1 microgram/mL in microplate wells. The resulting mixtures are mixed gently and incubated for 5-60 minutes at room temperature, protected from light, and the sample fluorescence is measured.

Where [5] appears, read: Excitation 500 nm/Emission 560 nm.
Setting [6] is: BOEHRINGER MANNHEIM LUMIIMAGER CCD, 300 nm trans., 520 nm em.
Setting [7] is: BOEHRINGER MANNHEIM LUMIIMAGER CCD, 300 nm trans., 545 nm em.
Where [8] appears, read: HITACHI FMBIO II laser scanner, 532 nm freq.-doubled YAG laser.
[9] abbreviates: POLAROID 667 B&W film, FOTODYNE 300 nm trans.
The mark [10] stands for this setting: Excitation 530 nm/Emission 560 nm.
Where [11] appears, read: Excitation 540 nm/Emission 570 nm.
Setting [12] is: Excitation 560 nm/Emission 585 nm.

Structures are written as SMILES. Bounds are passed on as bounds.

In the case of `CC1/C(=C/c2nc3c(ccc[n+]3C)o2)C=Cc2ccccc21.Cc1ccc(S(=O)(=O)[O-])cc1` (stereo not drawn) [Compound 53], in the test on double-stranded DNA (setting [5]), the “Sensitivity Limit, High dye concentration (0.1 OD)” value (“Sensitivity Limit … (0.1 OD)” below) turned out to be 10 ng/mL and the “Sensitivity Limit, Low dye concentration (0.01 OD)” value (from here on “Sensitivity Limit … (0.01 OD)”) was >10 ng/mL.
On the same counts, the results for `CN1C=CC(Cc2sc3c(F)nc(F)c(F)c3[n+]2C)c2ccccc21.[I-]` (stereo not drawn) [Compound 49] are 20 ng/mL and >10 ng/mL.
Regarding `CCN1C(c2ccccc2)=C/C(=C\c2nc3c(ccc[n+]3C)o2)c2cc3c(cc21)OCO3.[I-]` [Compound 18], the “Sensitivity Limit … (0.1 OD)” value in test [1] is <10 ng/mL; in test [4], 10 ng/mL; in the test with double-stranded DNA (setting [10]), <10 ng/mL. The figures for the “Sensitivity Limit … (0.01 OD)” value (in test [1]; in test [4]; with double-stranded DNA (setting [10])) were >10 ng/mL, 1.2 ng/mL and 0.2 to 0.5 ng/mL, respectively. Besides, the “Sensitivity for detecting double-stranded DNA in agarose gels” value (“Sensitivity … in agarose gels” below) in test [2] was determined as 60 pg; in test [3] (setting [6]), 210 pg; in test [3] (setting [7]), 100 pg; in test [3] (setting [8]), 50 pg; in test [3] (setting [9]), 120 pg.
As to `CN1C=C/C(=C\c2nc3cc[n+](C)cc3o2)c2ccccc21.[I-]` [Compound 31], in the test on double-stranded DNA (setting [10]), the “Sensitivity Limit … (0.1 OD)” value was found to be 50 ng/mL and the “Sensitivity Limit … (0.01 OD)” value stood at 2.0 ng/mL.
Consider `CN1C=C/C(=C\c2nc3c(cc(Cl)c[n+]3C)s2)c2ccccc21.[I-]` [Compound 34], for which, in the test on double-stranded DNA (setting [11]), the “Sensitivity Limit … (0.1 OD)” value is <10 ng/mL and the “Sensitivity Limit … (0.01 OD)” value was 0.2 ng/mL.
Turning to `CN1C(Sc2ccccn2)=C/C(=C\c2nc3c(ccc[n+]3C)s2)c2ccccc21.[I-]` [Compound 32], in the test on double-stranded DNA (setting [10]), the “Sensitivity Limit … (0.1 OD)” value is 10 ng/mL and the “Sensitivity Limit … (0.01 OD)” value was found to be 1.0 ng/mL.
For `COc1ccc2c(c1)N(C)C(c1ccccc1)=C/C2=C\c1nc2c(ccc[n+]2C)o1.[I-]` [Compound 21], the “Sensitivity … in agarose gels” value worked out at 60 pg in test [2]; 420 pg in test [3] (setting [6]); 50 pg in test [3] (setting [7]); 50 pg in test [3] (setting [8]); 120 pg in test [3] (setting [9]). The “Sensitivity Limit … (0.1 OD)” value in the test on double-stranded DNA (setting [10]) is <10 ng/mL. In the test on double-stranded DNA (setting [10]), the “Sensitivity Limit … (0.01 OD)” value amounted to 0.2 ng/mL.
Take `COC1=C/C(=C\c2nc3c(ccc[n+]3C)o2)c2ccccc2N1C` [Compound 54]: in the test on double-stranded DNA (setting [5]), the “Sensitivity Limit … (0.1 OD)” value turned out to be 10 ng/mL and the “Sensitivity Limit … (0.01 OD)” value amounted to 1.0 ng/mL.
`CN1C(Cl)=C/C(=C\c2nc3c(cc(Cl)c[n+]3C)s2)c2ccccc21.[Cl-]` [Compound 41]: in the test on double-stranded DNA (setting [12]), the “Sensitivity Limit … (0.1 OD)” value came to 10 ng/mL and the “Sensitivity Limit … (0.01 OD)” value is >10 ng/mL.
The corresponding values for `CN1C=C/C(=C\c2nc3c(cc(Cl)c[n+]3C)s2)c2ccccc21.[I-]` [Compound 39] are 10 ng/mL and 5.0 ng/mL.
For `CCCCC1=C/C(=C\c2nc3c(ccc[n+]3C)o2)c2ccccc2N1c1ccccc1.[I-]` [Compound 15], the “Sensitivity … in agarose gels” value is given as 60 pg in test [2]; 210 pg in test [3] (setting [6]); 100 pg in test [3] (setting [7]); 100 pg in test [3] (setting [8]); 480 pg in test [3] (POLAROID 667 B&W film, DARK READER visible light box); 240 pg in test [3] (setting [9]). Also, the “Sensitivity Limit … (0.1 OD)” value in the test with double-stranded DNA (setting [10]) was determined as 10 ng/mL. For the same molecule, in the test on double-stranded DNA (setting [10]), the “Sensitivity Limit … (0.01 OD)” value was 0.5 ng/mL.
